Consider twelve compounds from ChEMBL document CHEMBL2331260, “Discovery of thieno[3,2-d]pyrimidine-6-carboxamides as potent inhibitors of SIRT1, SIRT2, and SIRT3” (J Med Chem, 2013).

≈ marks a conversion by molar mass, not a printed value. A value given as a limit tells only on which side of the number the result lay.

Series [1] addresses T1, NAD-dependent protein deacetylase sirtuin-3, mitochondrial (Homo sapiens, UniProt Q9NTG7).
T1 sequence (Q9NTG7 whole entry): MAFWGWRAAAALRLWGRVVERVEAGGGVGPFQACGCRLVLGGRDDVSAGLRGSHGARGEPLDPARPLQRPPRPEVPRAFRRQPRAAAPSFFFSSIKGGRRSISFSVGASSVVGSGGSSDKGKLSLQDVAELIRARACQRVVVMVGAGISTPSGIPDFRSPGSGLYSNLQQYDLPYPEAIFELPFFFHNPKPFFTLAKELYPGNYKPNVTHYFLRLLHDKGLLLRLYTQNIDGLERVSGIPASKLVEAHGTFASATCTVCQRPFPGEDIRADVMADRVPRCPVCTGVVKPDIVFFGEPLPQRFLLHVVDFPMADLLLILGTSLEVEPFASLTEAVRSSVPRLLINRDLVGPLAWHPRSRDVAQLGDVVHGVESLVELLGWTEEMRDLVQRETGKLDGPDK
The series is described as follows: Inhibition of His-tagged SIRT3 (unknown origin) using KI179 as substrate after 1 hr by spectrophotometric analysis.

The target in series [2] is T2, NAD-dependent protein deacetylase sirtuin-1 (Homo sapiens, UniProt Q96EB6).
T2 sequence (Q96EB6 whole entry): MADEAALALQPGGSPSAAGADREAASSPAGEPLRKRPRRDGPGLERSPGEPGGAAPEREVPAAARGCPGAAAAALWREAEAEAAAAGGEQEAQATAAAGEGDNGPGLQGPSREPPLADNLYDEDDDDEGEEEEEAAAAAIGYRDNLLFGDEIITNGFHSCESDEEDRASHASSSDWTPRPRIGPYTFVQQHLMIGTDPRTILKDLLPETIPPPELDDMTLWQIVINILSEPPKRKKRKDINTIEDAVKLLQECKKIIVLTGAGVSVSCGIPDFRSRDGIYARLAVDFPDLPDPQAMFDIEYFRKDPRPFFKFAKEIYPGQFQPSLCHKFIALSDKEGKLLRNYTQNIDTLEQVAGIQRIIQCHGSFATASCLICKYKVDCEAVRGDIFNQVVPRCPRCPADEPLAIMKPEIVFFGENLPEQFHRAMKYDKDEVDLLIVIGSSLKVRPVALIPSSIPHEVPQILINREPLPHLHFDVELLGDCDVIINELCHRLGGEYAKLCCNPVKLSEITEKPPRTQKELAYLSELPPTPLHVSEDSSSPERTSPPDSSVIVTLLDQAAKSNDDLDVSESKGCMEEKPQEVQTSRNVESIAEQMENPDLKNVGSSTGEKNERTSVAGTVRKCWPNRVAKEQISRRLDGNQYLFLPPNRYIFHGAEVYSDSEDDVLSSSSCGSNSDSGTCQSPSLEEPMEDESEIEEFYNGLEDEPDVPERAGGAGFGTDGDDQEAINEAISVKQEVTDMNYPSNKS
The series is described as follows: Inhibition of GST-tagged SIRT1 (unknown origin) using KI177 as substrate after 1 hr by spectrophotometric analysis.

Series [3] can be described thus: Kinetic solubility in PBS at pH 7.4 by chemiluminescent nitrogen detection assay.
Series [4] has as its target T1, NAD-dependent protein deacetylase sirtuin-3, mitochondrial. The series is described as follows: Inhibition of human His-tagged SIRT3 (102 to 399) expressed in Escherichia coli BL21(DE3) assessed as inhibition of deacetylation of Ac-RHKKAcW-NH2 substrate preincubated for 20 mins measured after 30 mins by mass spectrophotometric analysis.
For series [5], the target named is T3, NAD-dependent protein deacetylase sirtuin-2 (Homo sapiens, UniProt Q8IXJ6).
T3 sequence (Q8IXJ6 whole entry): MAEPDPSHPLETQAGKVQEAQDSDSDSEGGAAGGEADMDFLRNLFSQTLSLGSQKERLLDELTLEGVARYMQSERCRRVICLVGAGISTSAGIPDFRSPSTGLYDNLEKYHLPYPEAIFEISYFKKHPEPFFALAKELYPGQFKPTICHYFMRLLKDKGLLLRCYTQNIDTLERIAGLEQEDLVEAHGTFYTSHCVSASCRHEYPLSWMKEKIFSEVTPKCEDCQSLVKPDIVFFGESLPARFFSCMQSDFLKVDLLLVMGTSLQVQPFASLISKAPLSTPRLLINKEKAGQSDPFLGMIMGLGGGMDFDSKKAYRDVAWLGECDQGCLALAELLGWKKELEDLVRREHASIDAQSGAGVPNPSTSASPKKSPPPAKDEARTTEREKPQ
The series is described as follows: Inhibition of His-tagged SIRT2 (1 to 389) (unknown origin)-mediated deacetylation of Ac-RHKKAcW-NH2 substrate incubated for 20 mins prior to substrate addition measured after 30 mins by mass spectrophotometric analysis.

Series [6] concerns the target T2, NAD-dependent protein deacetylase sirtuin-1. The series is described as follows: Inhibition of His-tagged SIRT1 (1 to 747) (unknown origin)-mediated deacetylation of Ac-RHKKAcW-NH2 substrate preincubated for 20 mins measured after 30 mins by mass spectrophotometric analysis.
The next series concerns the target Cytochrome P450 3A4 (Homo sapiens, UniProt P08684). The series is described as follows: Inhibition of CYP3A4 (unknown origin). It counts as ADME.
Another series deals with Cytochrome P450 2D6 (Homo sapiens, UniProt P10635). The series is described as follows: Inhibition of CYP2D6 (unknown origin). The class given is ADME.
The target in another series is Cytochrome P450 2C19 (Homo sapiens, UniProt P33261). The series is described as follows: Inhibition of CYP2C19 (unknown origin). The class given is ADME.
For a further series, the target named is T4, Cytochrome P450 1A2 (Homo sapiens, UniProt P05177).
T4 sequence (P05177 whole entry): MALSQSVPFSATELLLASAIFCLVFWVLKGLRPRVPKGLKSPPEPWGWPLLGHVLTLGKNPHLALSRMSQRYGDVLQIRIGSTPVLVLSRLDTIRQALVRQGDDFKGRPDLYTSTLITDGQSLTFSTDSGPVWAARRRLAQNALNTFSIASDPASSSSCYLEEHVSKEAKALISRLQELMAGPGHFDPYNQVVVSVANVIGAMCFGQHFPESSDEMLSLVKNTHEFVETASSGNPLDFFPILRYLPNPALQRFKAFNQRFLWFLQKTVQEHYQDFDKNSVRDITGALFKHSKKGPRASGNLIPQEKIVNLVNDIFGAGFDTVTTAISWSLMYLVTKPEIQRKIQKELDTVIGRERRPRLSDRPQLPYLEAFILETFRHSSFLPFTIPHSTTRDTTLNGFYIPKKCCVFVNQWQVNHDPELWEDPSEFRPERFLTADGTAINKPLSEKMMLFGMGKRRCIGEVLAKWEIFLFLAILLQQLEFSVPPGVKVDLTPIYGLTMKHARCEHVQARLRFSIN
The series is described as follows: Inhibition of CYP1A2 (unknown origin). The class given is ADME.

For series [7], the target named is Voltage-gated inwardly rectifying potassium channel KCNH2 (Homo sapiens, UniProt Q12809). The series is described as follows: Inhibition of human ERG by dofetilide binding assay.
The nature of series [8]: Intrinsic clearance in human liver microsomes measured per mg of protein. Conditions: read-out: CLH. The class given is ADME, Microsome. Background: Liver microsomes are vesicles of endoplasmic reticulum, rich in cytochrome P450 enzymes.
Series [9] is described as follows: Intrinsic clearance in mouse liver microsomes measured per mg of protein. The class given is ADME, Microsome. Particulars: read-out: CLH.

Chain of Voltage-gated inwardly rectifying potassium channel KCNH2 (Q12809 whole entry): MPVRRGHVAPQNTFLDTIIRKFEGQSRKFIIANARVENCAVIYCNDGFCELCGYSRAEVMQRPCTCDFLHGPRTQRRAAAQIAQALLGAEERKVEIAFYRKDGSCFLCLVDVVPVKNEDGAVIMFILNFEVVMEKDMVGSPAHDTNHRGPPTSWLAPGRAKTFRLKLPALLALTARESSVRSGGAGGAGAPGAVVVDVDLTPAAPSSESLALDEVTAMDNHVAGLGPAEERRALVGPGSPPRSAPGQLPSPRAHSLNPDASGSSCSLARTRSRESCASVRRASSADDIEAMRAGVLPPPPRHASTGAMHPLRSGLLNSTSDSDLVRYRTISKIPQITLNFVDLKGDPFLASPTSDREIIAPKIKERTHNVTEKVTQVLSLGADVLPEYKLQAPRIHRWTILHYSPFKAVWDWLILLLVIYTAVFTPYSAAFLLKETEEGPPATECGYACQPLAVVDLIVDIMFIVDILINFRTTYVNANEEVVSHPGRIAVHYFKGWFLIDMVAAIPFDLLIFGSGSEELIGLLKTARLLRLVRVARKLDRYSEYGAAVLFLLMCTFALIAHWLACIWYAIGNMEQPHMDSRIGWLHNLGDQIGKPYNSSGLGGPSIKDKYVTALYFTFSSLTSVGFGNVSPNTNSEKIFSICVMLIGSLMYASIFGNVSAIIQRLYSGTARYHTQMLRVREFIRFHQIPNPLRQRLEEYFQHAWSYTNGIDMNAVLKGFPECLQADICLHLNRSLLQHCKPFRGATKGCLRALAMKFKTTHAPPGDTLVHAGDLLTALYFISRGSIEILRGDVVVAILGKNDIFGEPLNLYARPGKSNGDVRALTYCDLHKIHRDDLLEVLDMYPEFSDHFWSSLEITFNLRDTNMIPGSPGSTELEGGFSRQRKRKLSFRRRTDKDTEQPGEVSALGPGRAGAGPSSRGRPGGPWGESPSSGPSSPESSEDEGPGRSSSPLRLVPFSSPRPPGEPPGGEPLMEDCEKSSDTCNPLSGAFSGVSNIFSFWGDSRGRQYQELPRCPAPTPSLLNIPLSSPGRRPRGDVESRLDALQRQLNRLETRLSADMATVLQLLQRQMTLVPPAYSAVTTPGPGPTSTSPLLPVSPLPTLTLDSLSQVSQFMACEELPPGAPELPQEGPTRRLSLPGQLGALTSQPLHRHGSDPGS
Chain of Cytochrome P450 2D6 (P10635 whole entry): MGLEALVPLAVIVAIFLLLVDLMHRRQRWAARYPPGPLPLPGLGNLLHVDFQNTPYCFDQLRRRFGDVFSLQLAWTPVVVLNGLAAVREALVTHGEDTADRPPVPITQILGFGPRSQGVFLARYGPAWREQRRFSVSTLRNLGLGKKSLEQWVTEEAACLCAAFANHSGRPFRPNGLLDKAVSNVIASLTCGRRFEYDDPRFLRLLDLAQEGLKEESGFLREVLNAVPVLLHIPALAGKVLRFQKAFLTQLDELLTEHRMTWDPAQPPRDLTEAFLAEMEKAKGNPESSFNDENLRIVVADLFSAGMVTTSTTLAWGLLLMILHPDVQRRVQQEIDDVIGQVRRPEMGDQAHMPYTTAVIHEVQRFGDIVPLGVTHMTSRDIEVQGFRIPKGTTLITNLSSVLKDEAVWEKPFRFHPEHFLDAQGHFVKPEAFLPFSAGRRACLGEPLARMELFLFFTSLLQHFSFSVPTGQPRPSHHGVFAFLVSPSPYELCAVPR
Chain of Cytochrome P450 2C19 (P33261 whole entry): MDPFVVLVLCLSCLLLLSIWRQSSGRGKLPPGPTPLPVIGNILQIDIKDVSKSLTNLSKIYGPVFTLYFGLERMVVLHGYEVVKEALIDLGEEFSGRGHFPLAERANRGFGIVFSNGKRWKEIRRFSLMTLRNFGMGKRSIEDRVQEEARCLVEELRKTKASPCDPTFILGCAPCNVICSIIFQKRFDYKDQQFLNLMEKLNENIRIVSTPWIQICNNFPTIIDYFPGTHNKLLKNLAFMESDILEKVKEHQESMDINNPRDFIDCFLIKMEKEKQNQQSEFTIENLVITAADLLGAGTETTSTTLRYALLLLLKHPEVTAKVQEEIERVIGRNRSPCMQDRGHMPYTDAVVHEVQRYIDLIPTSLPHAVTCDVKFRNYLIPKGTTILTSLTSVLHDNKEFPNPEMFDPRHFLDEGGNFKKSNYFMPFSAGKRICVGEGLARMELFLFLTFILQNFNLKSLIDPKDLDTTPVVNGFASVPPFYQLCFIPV
Chain of Cytochrome P450 3A4 (P08684 whole entry): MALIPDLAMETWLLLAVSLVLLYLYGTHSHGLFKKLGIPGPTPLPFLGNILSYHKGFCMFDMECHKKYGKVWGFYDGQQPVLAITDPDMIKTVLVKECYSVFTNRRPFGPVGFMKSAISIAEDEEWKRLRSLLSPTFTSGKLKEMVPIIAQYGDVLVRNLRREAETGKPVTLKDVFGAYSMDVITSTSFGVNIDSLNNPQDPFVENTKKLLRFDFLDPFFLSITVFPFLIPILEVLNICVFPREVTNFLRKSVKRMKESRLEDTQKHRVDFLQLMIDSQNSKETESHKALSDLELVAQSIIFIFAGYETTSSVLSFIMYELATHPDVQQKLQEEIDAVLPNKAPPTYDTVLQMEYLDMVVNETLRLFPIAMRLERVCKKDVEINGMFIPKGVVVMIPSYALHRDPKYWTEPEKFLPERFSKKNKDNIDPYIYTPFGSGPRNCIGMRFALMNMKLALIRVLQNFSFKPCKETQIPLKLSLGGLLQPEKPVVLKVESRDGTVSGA

Regarding `CCCCC[C@H]1CC(=O)c2cc(Cl)cc(Br)c2O1`, the IC50 in series [1] and in series [2] was greater than 200000 nM each time.
With `CCNC(=O)c1cccc(C(=O)NCCC2CCN(c3ncnc4cc(C(N)=O)sc34)CC2)c1`, in series [3], the solubility (kinetic) (in general, solubility judged after dilution from a stock solution rather than from solid) came out at 19 µM (≈ 9.13 µg/mL). Besides, the IC50 (commonly the concentration that gives 50% inhibition) in series [4] turned out to be 4.9 nM; in series [5] it was 1.3 nM; in [6], 5.3 nM.
`CCNC(=O)c1cccc(C(=O)NCCN2CCN(c3ncnc4cc(C(N)=O)sc34)CC2)c1` yielded a kinetic solubility in series [3] of 220 µM (≈ 106 µg/mL).
Same read-out and setting: as for `CCNC(=O)c1ccc(C(=O)NCCC2CCN(c3ncnc4cc(C(N)=O)sc34)CC2)s1`, the figure is 9 µM (≈ 4.38 µg/mL).
Take `CCNC(=O)c1ccc(C(=O)NCCN2CCN(c3ncnc4cc(C(N)=O)sc34)CC2)s1`: in series [3], the solubility (kinetic) amounted to 65 µM (≈ 31.7 µg/mL). The IC50 in [5] stood at 4.8 nM.
Turning to `CC(C)(C)OC(=O)c1ccc(C(=O)NCCC2CCN(c3ncnc4cc(C(N)=O)sc34)CC2)s1`, the IC50 came to 1.8 nM in series [5] and 6.7 nM in [6].
Consider `NC(=O)c1cc2ncnc(N3CCC(CCNC(=O)c4ccc(C(=O)O)s4)CC3)c2s1`, for which, in [5], the half-maximal inhibitory concentration (IC50) came to 4.4 nM.
Regarding `NC(=O)c1cc2ncnc(N3CCC(CCNC(=O)c4cccs4)CC3)c2s1`, the 50% inhibitory concentration (IC50) in [5] was determined as 6.5 nM; in series [6] it was 5.8 nM.
In the case of `CC(C)(C)OC(=O)NCCC1CCN(c2ncnc3cc(C(N)=O)sc23)CC1`, in series [5], 5.4 nM corresponded to half-maximal inhibition (IC50).
Consider `CC(C)(C)C(=O)NCCC1CCN(c2ncnc3cc(C(N)=O)sc23)CC1`, for which the IC50 (on Cytochrome P450 3A4; against Cytochrome P450 2D6; at Cytochrome P450 2C19; on Cytochrome P450 1A2; in series [7]) was greater than 50000 nM in each case. Moreover, the kinetic solubility in [3] was 297 µM (≈ 116 µg/mL). Besides, the microsomal CLint came out at 15.8 µL/min/mg in [8] and 12.7 µL/min/mg in series [9].
For the compound `CS(=O)(=O)NCCC1CCN(c2ncnc3cc(C(N)=O)sc23)CC1`, inhibition in series [5] was half-maximal at 1.1 nM (IC50).
Consider `CC(C)(C)C(=O)NCCC1CCN(c2ncnc3cc(C(=O)O)sc23)CC1`, for which the 50% inhibitory concentration (IC50) in [5] and in series [6] was greater than 50000 nM in each case.
